Results on three molecules are retold here after patent EP1738803A1, “Inhibitors of staphylococcus hominis in deodorants and antiperspirants” (Henkel Kommanditgesellschaft auf Aktien, priority 2005, dated 2007).

For the assay, the system named is Staphylococcus hominis. Briefly: Inhibition test: growth of Staphylococcus hominis in Luria broth liquid culture, plate count versus control. The assay is classed as cell-based. Particulars: for log reduction at 0.1 % / log reduction at 0.05 % / log reduction at 0.2 % / log reduction at 0.5 %: Staphylococcus hominis, read-out: Hemmleistung als Differenz zur Kontrolle in log-Stufen (RF-Wert); for log reduction at 0.1 %: 0,1 Gew.-% Aktivsubstanz; for log reduction at 0.1 % / log reduction at 0.05 % / Hemmleistung als Differenz zur Kontrolle in log-Stufen (RF-Wert): 37°C; for log reduction at 0.05 %: 0,05 Gew.-% Aktivsubstanz; for Hemmleistung als Differenz zur Kontrolle in log-Stufen (RF-Wert): 0,5 Gew.-% Aktivsubstanz. The method, then:
Eine Luria-broth-Vorkultur (1 Gew.-% Trypton, 0,5 Gew.-% Hefeextrakt, 0,5 Gew.-% NaCl) von Staphylococcus hominis wurde mit Medium auf eine OD600 von 0,1 (entspricht 10^5-10^7 cfu/ml) eingestellt und in 50 ml-Aliquots auf Erlenmeyer-Kolben verteilt. Dazu wurden die zu testenden Wirkstoffe gegeben, so dass sie in den in Tabelle 1 angegebenen Konzentrationen vorlagen, und die Kultur mit 100 Upm bei 37°C inkubiert. Öllösliche Stoffe wie Bisabolol wurden mit 0,1% Tween emulgiert und gegen eine entsprechende Kontrolle getestet. Nach 4, 8 und 24 h erfolgte eine Keimzahlbestimmung über Ausplattieren, wobei die Hemmleistung der einzelnen Wirkstoffe als RF-Wert (Differenz zur Kontrolle in log-Stufen) angegeben ist. Tabelle 1

Read-outs that look alike come from different tables or passages of the source.

Take `CC(C)=CCC[C@](C)(O)C1CC=C(C)CC1` (stereo partly drawn) [(-)-α-Bisabolol]: the log reduction at 0.1 % (Zeit 0 h) came out at 0, the log reduction at 0.1 % (Zeit 4 h) was determined as 1.98 and the log reduction at 0.1 % (Zeit 8 h) is 2.6. In addition, the log reduction at 0.05 % reads like this: (Zeit 0 h) 0; (Zeit 4 h) 1.3; (Zeit 8 h) 1.75.
Regarding `CCCCC(CC)COCC(O)CO` (stereo not drawn) [Sensiva SC 50, α-Mono-(2-ethylhexyl)glycerinether], the log reduction at 0.2 % (0 h) amounted to 0, the log reduction at 0.2 % (4 h) came to 5.77 and the log reduction at 0.2 % (8 h) worked out at 6.19. Moreover, the log reduction at 0.5 % was 0 (0 h), 6.14 (4 h) and 6.63 (8 h).
As to Aluminiumchlorhydrat, the “Hemmleistung als Differenz zur Kontrolle in log-Stufen (RF-Wert)” value is on record as 0 log-Stufen (Zeit 0 h), 6,07 log-Stufen (Zeit 4 h) and 6,34 log-Stufen (Zeit 8 h).
